Measured values as given in patent US9409952B2, “Peptide-compound cyclization method” (Chugai Seiyaku Kabushiki Kaisha, priority 2011, dated 2016).
Like-named read-outs stand apart in the source and are kept apart here. Starred links: 1 amine or outer side, 2 acyl side, 3 side chain; linkers in the order of their positions; H or OH if unused. Positions of bridges follow the written chain, without caps; N, C: chain ends. Non-standard residues stand in square brackets, D forms with d. Residues, ends and D or L forms follow the SMILES beside them. *: point of attachment. Phe(3-(CH2)4CO) = O=C([C@H](Cc1cccc(CCCCC(=O)[*:3])c1)N[*:1])[*:2]; Phe(4-CF3) = N[C@@H](Cc1ccc(C(F)(F)F)cc1)C(=O)O; NMeF = CN[C@@H](Cc1ccccc1)C(=O)O; NMeI = CC[C@H](C)[C@H](NC)C(=O)O; NMeβAla = CN(CCC(=O)[*:2])[*:1]; NMeL = CN[C@@H](CC(C)C)C(=O)O; NMeV = CN[C@H](C(=O)O)C(C)C; NMeA = CN[C@@H](C)C(=O)O; Piperidide = C1CCN(*)CC1; β3hA = C[C@H](N)CC(=O)O; Sar = CNCC(=O)O; tBu = CC(C)(C)*

Key:
[1] = PAMPA (parallel artificial membrane permeability assay); format: in vitro ADME; conditions: PAMPA
Method in brief: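 Artificial membrane was 10% (w/v) egg lecithin plus 0.5% (w/v) cholesterol in dodecane on a PVDF filter. A 10 mM DMSO stock was added at 0.5% (v/v) to donor buffer (50 mM MOPSO, pH 6.5, 5.0% glycocholic acid). After 18 h at 37 °C, LC/MS or LC/UV gave donor and acceptor levels for Pe.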

[2] = Metabolic stability in human hepatic microsome; format: in vitro ADME; conditions: microsomes
[3] = membrane permeation rate (Pe), 50 mM MOPSO buffer pH 6.5 with 5.0% glycocholic acid, 37° C., 18 hours, read-out: iPAMPA Pe
[4] = pH 7.4, human hepatic microsome, NADPH(+), read-out: CL NADPH(+)

SMILES	Papp at 18 hours, 50 µM ([1]; pH 6.5) [×10⁻⁶ cm/s]	microsomal CLint at 1 uM ([2]; human, pH 7.4, CL NADPH(+)) [µL/min/mg]	Papp at 18 hours, 50 µM [1, 3] [×10⁻⁶ cm/s]	microsomal CLint at 1 uM [2, 4] [µL/min/mg]
CC[C@H](C)[C@H](NC(=O)[C@H](CC(C)C)NC(=O)[C@@H]1CC(=O)N[C@@H](C)C(=O)N[C@@H](CC(C)C)C(=O)N[C@@H](Cc2ccccc2)C(=O)N[C@@H](CC(C)C)C(=O)N[C@@H]([C@@H](C)O)C(=O)N2CCC[C@H]2C(=O)N(C)CC(=O)N[C@@H](Cc2ccccc2)C(=O)N[C@@H](C(C)C)C(=O)N(C)[C@@H](C)C(=O)N1)C(=O)N1CCCCC1 [DP-41] (ALFLTP[Sar]FV[NMeA]DLI-Piperidide; lactam N-11)	11	72		
CC(C)C[C@H]1C(=O)N(C)[C@@H](CC(C)C)C(=O)N[C@H](C(=O)N(C)[C@@H](Cc2ccccc2)C(=O)N[C@@H](C)C(=O)N2CCCCC2)CC(=O)N[C@@H](C)C(=O)N(C)[C@@H](C)C(=O)N(C)[C@@H](Cc2ccccc2)C(=O)N(C)[C@@H](CC(C)C)C(=O)N[C@@H]([C@@H](C)O)C(=O)N(C)CC(=O)N[C@@H](C(C)C)C(=O)N1C [DP-188] (A[NMeA][NMeF][NMeL]T[Sar]V[NMeL][NMeL]D[NMeF]A-Piperidide; lactam N-10)			28	84
CC(C)C[C@@H]1NC(=O)[C@@H](C(C)C)NC(=O)C[C@H](C)NC(=O)[C@H](CC(C)C)N(C)C(=O)[C@H](CC(C)C)N(C)C(=O)[C@H](Cc2ccc(C(F)(F)F)cc2)NC(=O)[C@H](C)N(C)C(=O)[C@H]([C@@H](C)O)NC1=O [DP-825] (cyclo(LT[NMeA][Phe(4-CF3)][NMeL][NMeL][β3hA][dV]))			39	168
CC[C@H](C)[C@@H]1NC(=O)[C@H](CC(C)C)N(C)C(=O)CCN(C)C(=O)C[C@@H](C(=O)N2CCCCC2)NC(=O)[C@H](Cc2ccccc2)N(C)C(=O)[C@H](CC(C)C)NC(=O)CN(C)C(=O)[C@H]([C@@H](C)O)NC(=O)[C@H](C)N(C)C(=O)[C@H](C(C)C)N(C)C1=O [DP-118] ([NMeβAla][NMeL]I[NMeV][NMeA]T[Sar]L[NMeF]D-Piperidide; lactam N-10)	14	79		
CC(C)C[C@H]1C(=O)N[C@@H]([C@@H](C)O)C(=O)N[C@@H](COC(C)(C)C)C(=O)N[C@H](C(=O)N2CCCCC2)CC(=O)N(C)CCC(=O)N(C)[C@@H](Cc2ccccc2)C(=O)N(C)[C@@H](CC(C)C)C(=O)N1C [DP-747] ([NMeβAla][NMeF][NMeL][NMeL]TS(tBu)D-Piperidide; lactam N-7)			20	248
CC(C)C[C@@H]1NC(=O)[C@H](CC(C)C)N(C)C(=O)[C@H](C)NC(=O)[C@H](C(C)C)N(C)C(=O)[C@H](C)N(C)C(=O)CN(C)C(=O)[C@H]([C@@H](C)O)NC(=O)[C@H](Cc2ccccc2)NC(=O)[C@H](CC(C)C)N(C)C(=O)[C@H](C)N(C)C(=O)C[C@@H](C(=O)N2CCCCC2)NC1=O [DP-237] ([NMeA][NMeL]FT[Sar][NMeA][NMeV]A[NMeL]LD-Piperidide; lactam N-11)			12	37
CC[C@H](C)[C@H]1C(=O)NCC(=O)N(C)[C@@H](Cc2ccccc2)C(=O)N[C@@H]([C@@H](C)O)C(=O)N(C)[C@@H](C)C(=O)N[C@@H](CC(C)C)C(=O)N[C@H](C(=O)N2CCCCC2)CC(=O)N(C)CCC(=O)N(C)[C@@H](C)C(=O)N[C@@H](Cc2ccccc2)C(=O)N[C@@H](C(C)C)C(=O)N(C)[C@@H](CC(C)C)C(=O)N1C [DP-59] ([NMeβAla][NMeA]FV[NMeL][NMeI]G[NMeF]T[NMeA]LD-Piperidide; lactam N-12)	21	65		
CC(C)C[C@@H]1NC(=O)[C@H](CC(C)C)N(C)C(=O)[C@H](C)N(C)C(=O)C[C@@H](C(=O)N2CCCCC2)NC(=O)[C@H](CC(C)C)N(C)C(=O)[C@H](Cc2ccccc2)N(C)C(=O)[C@H](C)N(C)C(=O)[C@H]([C@@H](C)O)NC(=O)[C@H](Cc2ccccc2)N(C)C1=O [DP-520] ([NMeA][NMeL]L[NMeF]T[NMeA][NMeF][NMeL]D-Piperidide; lactam N-9)			29	130
CC[C@H](C)[C@@H]1NC(=O)[C@H](CC(C)C)N(C)C(=O)CCN(C)C(=O)C[C@@H](C(=O)N(C)[C@@H](Cc2ccccc2)C(=O)N(C)[C@@H](Cc2ccccc2)C(=O)N[C@@H](C)C(=O)N2CCCCC2)NC(=O)[C@H](C(C)C)N(C)C(=O)[C@H](CC(C)C)N(C)C(=O)CN(C)C(=O)[C@H]([C@@H](C)O)NC(=O)[C@H](Cc2ccccc2)NC(=O)[C@H](C(C)C)N(C)C1=O [DP-496] ([NMeβAla][NMeL]I[NMeV]FT[Sar][NMeL][NMeV]D[NMeF][NMeF]A-Piperidide; lactam N-10)			23	13
CC[C@H](C)[C@H]1C(=O)N[C@@H](Cc2ccccc2)C(=O)N(C)[C@@H](Cc2ccccc2)C(=O)N[C@@H]([C@@H](C)O)C(=O)N2CCC[C@H]2C(=O)N[C@@H](CC(C)C)C(=O)N[C@H](C(=O)N2CCCCC2)Cc2cccc(c2)CCCCC(=O)N[C@@H](C(C)C)C(=O)N(C)CC(=O)N[C@@H](CC(C)C)C(=O)N(C)[C@@H](CC(C)C)C(=O)N[C@@H](C)C(=O)N1C [DP-896] (V[Sar]L[NMeL]A[NMeI]F[NMeF]TPL[Phe(3-(CH2)4CO)]-Piperidide; lactam N-12)			13	57
CC(C)[C@@H]1NC(=O)[C@H](C)N(C)C(=O)[C@H](C)N(C)C(=O)[C@H](Cc2ccccc2)N(C)C(=O)CNC(=O)[C@H]([C@@H](C)O)NC(=O)[C@H](C(C)C)N(C)C(=O)[C@H](C)NC(=O)[C@H](C)N(C)C(=O)C[C@@H](C(=O)N(C)[C@@H](Cc2ccccc2)C(=O)N(C)[C@@H](Cc2ccccc2)C(=O)N[C@@H](C)C(=O)N2CCCCC2)NC1=O [DP-457] ([NMeA]A[NMeV]TG[NMeF][NMeA][NMeA]VD[NMeF][NMeF]A-Piperidide; lactam N-10)			10	14
CC(C)C[C@@H]1NC(=O)[C@H](C)N(C)C(=O)CNC(=O)[C@H](C(C)C)N(C)C(=O)[C@H](Cc2ccccc2)NC(=O)[C@H]([C@@H](C)O)NC(=O)[C@H](CC(C)C)N(C)C(=O)CN(C)C(=O)C[C@@H](C(=O)N(C)[C@@H](Cc2ccccc2)C(=O)N[C@@H](C)C(=O)N2CCCCC2)NC(=O)[C@H](C)N(C)C(=O)[C@H](CC(C)C)N(C)C1=O [DP-285] ([Sar][NMeL]TF[NMeV]G[NMeA]L[NMeL][NMeA]D[NMeF]A-Piperidide; lactam N-11)	16	69		
CC[C@H](C)[C@H]1C(=O)N(C)[C@@H](C)C(=O)N[C@@H](Cc2ccccc2)C(=O)N[C@@H]([C@@H](C)O)C(=O)N[C@@H](CC(C)C)C(=O)N(C)[C@@H](Cc2ccccc2)C(=O)N(C)[C@@H](C(C)C)C(=O)N[C@H](C(=O)N2CCCCC2)CC(=O)N[C@@H](C)C(=O)N[C@@H](CC(C)C)C(=O)N1C [DP-18] (AL[NMeI][NMeA]FTL[NMeF][NMeV]D-Piperidide; lactam N-10)	30	202		
CC[C@H](C)[C@@H]1NC(=O)[C@H](CC(C)C)N(C)C(=O)[C@H](Cc2ccccc2)N(C)C(=O)[C@@H](C(C)C)NC(=O)C[C@@H](C(=O)N2CCCCC2)NC(=O)[C@H](CC(C)C)N(C)C(=O)[C@H](C)N(C)C(=O)[C@H]([C@@H](C)O)NC(=O)[C@H](Cc2ccccc2)N(C)C(=O)[C@H](C)N(C)C1=O [DP-255] ([dV][NMeF][NMeL]I[NMeA][NMeF]T[NMeA][NMeL]D-Piperidide; lactam N-10)			48	79
CC(C)C[C@@H]1NC(=O)[C@H](CC(C)C)N(C)C(=O)[C@H](C)NC(=O)[C@H](C(C)C)N(C)C(=O)[C@H](Cc2ccccc2)NC(=O)CN(C)C(=O)[C@H]([C@@H](C)O)NC(=O)[C@H](C)N(C)C(=O)[C@H](CC(C)C)N(C)C(=O)[C@@H](C)NC(=O)C[C@@H](C(=O)N(C)[C@@H](Cc2ccccc2)C(=O)N[C@@H](C)C(=O)N2CCCCC2)NC1=O [DP-179] ([dA][NMeL][NMeA]T[Sar]F[NMeV]A[NMeL]LD[NMeF]A-Piperidide; lactam N-11)			17	13
CC[C@H](C)[C@H]1C(=O)N[C@H](C(=O)N(C)[C@@H](Cc2ccccc2)C(=O)N[C@@H](C)C(=O)N2CCCCC2)CC(=O)N[C@@H](C)C(=O)N(C)[C@@H](Cc2ccccc2)C(=O)N(C)[C@@H](CC(C)C)C(=O)N[C@@H]([C@@H](C)O)C(=O)N(C)[C@@H](C)C(=O)N[C@@H](C(C)C)C(=O)N(C)[C@@H](CC(C)C)C(=O)N1C [DP-305] (A[NMeF][NMeL]T[NMeA]V[NMeL][NMeI]D[NMeF]A-Piperidide; lactam N-9)	35	700		
CC(C)C[C@@H](C(=O)N[C@@H](C)C(=O)N1CCCCC1)N(C)C(=O)[C@H](C)N(C)C(=O)[C@@H]1CC(=O)N[C@H](C(C)C)C(=O)N(C)[C@@H](C)C(=O)N(C)[C@@H](CC(C)C)C(=O)N(C)[C@@H](CC(C)C)C(=O)N(C)CC(=O)N(C)[C@@H](Cc2ccccc2)C(=O)N[C@@H](C)C(=O)N(C)[C@@H](Cc2ccccc2)C(=O)N(C)[C@@H](CC(C)C)C(=O)N[C@@H]([C@@H](C)O)C(=O)N1 [DP-582] ([dV][NMeA][NMeL][NMeL][Sar][NMeF]A[NMeF][NMeL]TD[NMeA][NMeL]A-Piperidide; lactam N-11)			21	12
CC(C)C[C@H]1C(=O)N[C@@H](C(C)C)C(=O)N(C)[C@@H](Cc2ccccc2)C(=O)N(C)[C@@H](CC(C)C)C(=O)N(C)[C@@H](CC(C)C)C(=O)N[C@H](C(=O)N(C)[C@@H](Cc2ccccc2)C(=O)N(C)[C@@H](Cc2ccccc2)C(=O)N[C@@H](C)C(=O)N2CCCCC2)CC(=O)N(C)CCC(=O)N[C@@H]([C@@H](C)O)C(=O)N(C)[C@@H](C)C(=O)N1C [DP-397] ([NMeβAla]T[NMeA][NMeL]V[NMeF][NMeL][NMeL]D[NMeF][NMeF]A-Piperidide; lactam N-9)	11	92		
